According to article PMC3265452 (PLoS Neglected Tropical Diseases, 2012):
Counter-ions that a name gives are not always drawn. Like-named read-outs stand apart in the source and are kept apart here.

Biological target: AaDOP2 (Aedes aegypti, UniProt H6D5H2)
Test: AaDOP2 antagonist screen of the LOPAC1280 library (HEK-CRELuc-Aadop2 cells, luminescence)
Format: cell-based
[1] = 10 µM compound, 300 nM dopamine, 2 hr, hit = compound effect <20

Sequence of AaDOP2 (H6D5H2 1-476): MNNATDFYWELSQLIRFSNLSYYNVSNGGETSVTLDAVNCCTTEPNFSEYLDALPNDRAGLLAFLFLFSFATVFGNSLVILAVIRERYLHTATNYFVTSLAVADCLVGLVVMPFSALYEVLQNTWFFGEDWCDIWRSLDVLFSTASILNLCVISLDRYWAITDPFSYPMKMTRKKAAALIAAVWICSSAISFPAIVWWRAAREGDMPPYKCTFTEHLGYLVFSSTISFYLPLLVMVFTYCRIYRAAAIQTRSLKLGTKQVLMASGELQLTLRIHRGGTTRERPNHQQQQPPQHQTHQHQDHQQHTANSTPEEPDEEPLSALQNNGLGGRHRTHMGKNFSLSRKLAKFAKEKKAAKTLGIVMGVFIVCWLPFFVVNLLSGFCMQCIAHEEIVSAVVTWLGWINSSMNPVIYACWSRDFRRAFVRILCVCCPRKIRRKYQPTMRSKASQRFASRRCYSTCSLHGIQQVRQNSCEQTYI

SMILES | Compound effect (percent receptor signaling in presence of test compound, relative lux units relative to the SCH23390 control) [1] | Compound effect (percent receptor signaling in presence of test compound, relative lux units relative to the SCH23390 control)
O=Nc1ccc2oc(=O)ccc2c1 [Compound 871, 6-Nitroso-1,2-benzopyrone] | 93% | –
CC1(C)NC(=O)N(c2ccc([N+](=O)[O-])c(C(F)(F)F)c2)C1=O [Compound 872, Nilutamide] | – | 93
O=C(Nc1cccc(C(=O)Nc2ccc(S(=O)(=O)O)c3cc(S(=O)(=O)O)cc(S(=O)(=O)O)c23)c1)Nc1cccc(C(=O)Nc2ccc(S(=O)(=O)O)c3cc(S(=O)(=O)O)cc(S(=O)(=O)O)c23)c1 [Compound 873, NF 023] | – | 94
Cc1ncc(CNC(=O)N(CCCl)N=O)c(N)n1 [Compound 874, Nimustine hydrochloride] | – | 88
O=C1OC(=O)[C@H]2[C@@H]1[C@@H]1CC[C@H]2O1 [Compound 875, Norcantharidin] | – | 76
COc1ccc2c(c1OC)C(=O)O[C@@H]2[C@H]1c2c(cc3c(c2OC)OCO3)CCN1C.Cl [Compound 876, Noscapine hydrchloride] | – | 78
CN1CCCC1c1cccnc1.Cc1ccc(C(=O)OC(C(=O)O)C(OC(=O)c2ccc(C)cc2)C(=O)O)cc1 (stereo not drawn) [Compound 877, (+)-Nicotine (+)-di-p-toluoyl tartrate] | – | 80
Oc1ccc2c3c1O[C@H]1c4[nH]c5ccccc5c4C[C@@]4(O)[C@@H](C2)N(CC2CC2)CC[C@]314 [Compound 878, Naltrindole hydrochloride] | – | 81
Cl.O=C(CCCN1CCC2(CC1)C(=O)N(CCc1ccc(N=C=S)cc1)CN2c1ccccc1)c1ccc(F)cc1 [Compound 879, N-(p-Isothiocyanatophenethyl)spiperone hydrochloride] | 83% | –
Cl.O=C(O)C1=CCCN(CCON=C(c2ccccc2)c2ccccc2)C1 [Compound 880, NO-711 hydrochloride] | 81% | –
CCOC(=O)C1=C(C)NC(C)=C(C(=O)OC)C1c1cccc([N+](=O)[O-])c1 (centres unmarked) [Compound 881, Nitrendipine] | – | 103
COCCOC(=O)C1=C(C)NC(C)=C(C(=O)OC(C)C)C1c1cccc([N+](=O)[O-])c1 (centres unmarked) [Compound 882, Nimodipine] | – | 102
CNCCC(Oc1ccccc1OC)c1ccccc1 (centres unmarked) [Compound 883, Nisoxetine hydrochloride] | – | 84
CC(CCc1ccccc1)NC(C)C(O)c1ccc(O)cc1 (centres unmarked) [Compound 884, Nylidrin hydrochloride] | – | 86
Cn1cnc2c(NC3CCCC3)ncnc21 [Compound 885, N6-Cyclopentyl-9-methyladenine] | – | 105
Oc1ccc2c3c1O[C@H]1c4oc5ccccc5c4C[C@@]4(O)[C@@H](C2)N(CC2CC2)CC[C@]314 [Compound 886, Naltriben methanesulfonate] | – | 102
COc1ccccc1N1CCN(CC(O)COc2cccc3ccccc23)CC1.Cl.Cl (centres unmarked) [Compound 887, Naftopidil dihydrochloride] | 79% | –
O=C(O)CCCCCCC1C(=O)NC(=O)N1CCC(O)C1CCCCC1 (centres unmarked) [Compound 888, BW 245C] | – | 120

SMILES | Compound effect (percent receptor signaling in presence of test compound, relative lux units relative to the SCH23390 control) [1] | Compound effect (percent receptor signaling in presence of test compound, relative lux units relative to the SCH23390 control)
C=CCN1CC[C@]23c4c5ccc(O)c4O[C@H]2/C(=N/NC(=O)c2ccccc2)CC[C@@]3(O)[C@H]1C5 [Compound 889, Naloxone benzoylhydrazone] | – | 101
O=c1[nH]c2cc(C(F)(F)F)ccc2n1-c1cc(C(F)(F)F)ccc1O [Compound 890, NS-1619] | – | 86
C=CCN1CC[C@]23c4c5ccc(O)c4O[C@@H]2/C(=N/N=C2\CC[C@@]4(O)C6Cc7ccc(O)c8c7[C@@]4(CCN6CC=C)[C@@H]2O8)CC[C@@]3(O)C1C5.Cl.Cl [Compound 891, Naloxonazine dihydrochloride] | – | 86
NS(=O)(=O)c1cccc2c1c([N+](=O)[O-])cc1nc([O-])c([O-])nc12.[Na+].[Na+] [Compound 892, NBQX disodium] | 95% | –
O=c1onc2n1-c1cc(Br)ccc1OC2 [Compound 893, NS 2028] | – | 98
CCCCCCCC/C=C\CCCCCCCC(=O)NCCO [Compound 895, N-Oleoylethanolamine] | 105% | –
CCn1cc(C(=O)O)c(=O)c2cc3c(cc21)OCO3 [Compound 896, Oxolinic acid] | – | 108
Cn1cnc2c(NCc3ccccc3)nc(NCCO)nc21 [Compound 897, Olomoucine] | – | 47
CCCCCCCC/C=C\CCCCCCCC(=O)O [Compound 898, Oleic Acid] | – | 95
Cc1cc(C(C)(C)C)c(O)c(C)c1CC1=NCCN1 [Compound 899, Oxymetazoline hydrochloride] | – | 84
NC(=O)C(=O)O [Compound 900, Sodium Oxamate] | – | 91
CCN(CC)CC#CCOC(=O)C(O)(c1ccccc1)C1CCCCC1 (centres unmarked) [Compound 901, Oxybutynin Chloride] | – | 83
NC(=O)CN1CC(O)CC1=O (centres unmarked) [Compound 902, Oxiracetam] | – | 101
C[C@@H]1O[C@@H](O[C@H]2C[C@@H](O)[C@]3(CO)[C@H]4[C@H](O)C[C@]5(C)[C@@H](C6=CC(=O)OC6)CC[C@]5(O)[C@@H]4CC[C@]3(O)C2)[C@H](O)[C@H](O)[C@H]1O [Compound 903, Ouabain] | – | 50
O=c1onc2cnc3ccccc3n12 [Compound 904, ODQ] | – | 98
CC1COc2c(N3CCN(C)CC3)c(F)cc3c(=O)c(C(=O)O)cn1c23 (centres unmarked) [Compound 907, Ofloxacin] | – | 92
O=C(O)/C=C/C(=O)O.O=C(O)/C=C/C(=O)O.O=C(O)/C=C/C(=O)O.O=C1CCCN1CC#CCN1CCCC1.O=C1CCCN1CC#CCN1CCCC1 [Compound 908, Oxotremorine sesquifumarate salt] | – | 88
